The values that follow come from patent US20250171465A1, “AKT INHIBITORS” (Stablix, Inc., priority 2023, published 2025).

SMILES strings stand for the structures.

The test system of the assay is KU1919.1. Kind of assay: Cell Titer Glo (CTG) proliferation assay, KU1919. Format: cell-based. The note with it: Homo sapiens, KU-19-19; KU1919.1 cells, 72.0 hrs.; read-out: AVE CTG Proliferation KU1919.1 72.0 hrs. Here is the method:
Seed cells in 40 μL of cell culture media into each well of 384-well cell culture plate, spin them at room temperature at 1,000 RPM for 1 minute and then transfer the plates into 37° C. 5% CO2 incubator overnight. Next day, treat cells with 40 nL of diluted compound and return to incubator. After compound treatment for 3 days, Add 30 μL of CellTiter-Glo reagent (Promega) into each well to be detected. Then place the plates at room temperature for 30 min followed by reading on EnVision. Inhibition activity calculated as % DMSO=100×(LumSample-Lum low control)/(Lum high control-Lum low control) where high control is from cells treated with 0.1% DMSO and Low control obtained from PBS only. Use XLFit (equation 201) to calculate IC50 (A+ ((B−A)/(1[…]((x/C)^D)))) where A: Bottom, B: Top, C: IC50, D: Slope.
`CCc1cccc(-c2cnc(C(=O)N3CCN(CC4CCN(CC(=O)NCCNC[C@@H](C(=O)N5CCN(c6ncnc7c6[C@H](C)C[C@H]7O)CC5)c5ccc(Cl)cc5)CC4)CC3)c(NC(=O)CNCc3ccncn3)c2)c1` [Compound I-166]: the IC50 fell in the range of 1000 to 5000 nM.

In the case of `CCc1cccc(-c2cnc(C(=O)NCCOCCNCC[C@H](NC(=O)C3(N)CCN(c4ncnc5[nH]ccc45)CC3)c3ccc(Cl)cc3)c(NC(=O)CN3CCOCC3)c2)c1` [Compound I-178], the IC50 fell in the range of 1000 to 5000 nM. To `NC1(C(=O)N[C@@H](CCN2CCC(OC3CCN(C(=O)[C@H](NC(=O)c4ccc(C5CCN(C(=O)CNCc6ccc(F)cc6F)CC5)cc4)C4CCCCC4)CC3)CC2)c2ccc(Cl)cc2)CCN(c2ncnc3[nH]ccc23)CC1` [Compound I-220] belongs 1000 to 5000 nM; to `NC1(C(=O)N[C@@H](CCN2CCC(OC3CCN(C(=O)[C@H](NC(=O)c4cc(C5CCCN(C(=O)C6CC6)C5)ccc4F)C4CCCCC4)CC3)CC2)c2ccc(Cl)cc2)CCN(c2ncnc3[nH]ccc23)CC1` (stereo partly drawn) [Compound I-221], 1000 to 5000 nM. To `NC1(C(=O)N[C@@H](CCN2CCC(OC3CCN(C(=O)[C@H](NC(=O)c4cc(C5CCCN(C(=O)CNCc6ccc(F)cc6F)C5)ccc4F)C4CCCCC4)CC3)CC2)c2ccc(Cl)cc2)CCN(c2ncnc3[nH]ccc23)CC1` (stereo partly drawn) [Compound I-222] belongs 1000 to 5000 nM; to `NC1(C(=O)N[C@@H](CCNS(=O)(=O)CCCCNC(=O)[C@H](NC(=O)c2cccc(C3CN(C(=O)C4CC4)C3)c2)C2CCCCC2)c2ccc(Cl)cc2)CCN(c2ncnc3[nH]ccc23)CC1` [Compound I-228], more than 10000 nM; to `NC1(C(=O)N[C@@H](CCN2CCN(C(=O)CN3CCC(OC4CCN(C(=O)[C@H](NC(=O)c5ccc(C6CN(C(=O)C7CC7)C6)cc5)C5CCCCC5)CC4)CC3)CC2)c2ccc(Cl)cc2)CCN(c2ncnc3[nH]ccc23)CC1` [Compound I-229], 1000 to 5000 nM. To `NC1(C(=O)N[C@@H](CCN2CCC(OC3CCN(C(=O)[C@H](NC(=O)c4ccc(C5CCN(C(=O)C6CC6)CC5)cc4)C4CCCCC4)CC3)CC2)c2ccc(Cl)cc2)CCN(c2ncnc3[nH]ccc23)CC1` [Compound I-231] belongs 1000 to 5000 nM.

For the molecule `NC1(C(=O)N[C@@H](CCN2CCN(C(=O)C34CCC(CN5CCN(C(=O)[C@H](NC(=O)c6cccc(C7CCCN(C(=O)C8CC8)C7)c6)C6CCCCC6)CC5)(CC3)OC4)CC2)c2ccc(Cl)cc2)CCN(c2ncnc3[nH]ccc23)CC1` (stereo partly drawn) [Compound I-232], the IC50 is more than 10000 nM. To `NC1(C(=O)N[C@@H](CCN2CCN(C(=O)CN3CCC(CN4CCN(C(=O)c5cccc(C6CCCN(C(=O)C7CC7)C6)c5)CC4)CC3)CC2)c2ccc(Cl)cc2)CCN(c2ncnc3[nH]ccc23)CC1` (stereo partly drawn) [Compound I-233] belongs 5000 to 10000 nM; to `NC1(C(=O)N[C@@H](CCNS(=O)(=O)CCCCNC(=O)[C@H](NC(=O)c2cccc(C3CCCN(C(=O)C4CC4)C3)c2)C2CCCCC2)c2ccc(Cl)cc2)CCN(c2ncnc3[nH]ccc23)CC1` (stereo partly drawn) [Compound I-234], more than 10000 nM. To `NC1(C(=O)N[C@@H](CCOCCN2CCC(OC3CCN(C(=O)[C@H](NC(=O)c4cccc(C5CCCN(C(=O)CNCc6ccc(F)cc6F)C5)c4)C4CCCCC4)CC3)CC2)c2ccc(Cl)cc2)CCN(c2ncnc3[nH]ccc23)CC1` (stereo partly drawn) [Compound I-236] belongs 500 to 1000 nM. To `NC1(C(=O)N[C@@H](CCNC(=O)[C@H](NC(=O)C2CC2)C2CCCCC2)c2ccc(Cl)cc2)CCN(c2ncnc3[nH]ccc23)CC1` [Compound I-237] belongs 5000 to 10000 nM; to `NC1(C(=O)N[C@@H](CCNS(=O)(=O)CCCCNC(=O)[C@H](NC(=O)c2cccc(C3CN(C(=O)CNCc4ccc(F)cc4F)C3)c2)C2CCCCC2)c2ccc(Cl)cc2)CCN(c2ncnc3[nH]ccc23)CC1` [Compound I-238], more than 10000 nM. In the case of `NC1(C(=O)N[C@@H](CCNS(=O)(=O)CCCCNC(=O)[C@H](NC(=O)c2cccc(C3CCCN(C(=O)CNCc4ccc(F)cc4F)C3)c2)C2CCCCC2)c2ccc(Cl)cc2)CCN(c2ncnc3[nH]ccc23)CC1` (stereo partly drawn) [Compound I-239], the IC50 is more than 10000 nM. To `NC1(C(=O)N[C@@H](CCN2CCC(OC3CCN(C(=O)[C@H](NC(=O)c4cccc(C5CN(C(=O)C6CC6)C5)c4)C4CCCCC4)CC3)CC2)c2ccc(Cl)cc2)CCN(c2ncnc3[nH]ccc23)CC1` [Compound I-243] belongs 1000 to 5000 nM.

As to `NC1(C(=O)N[C@@H](CCN2CCC(OC3CCN(C(=O)[C@H](NC(=O)c4cccc(C5CN(C(=O)CNC6CC6)C5)c4)C4CCCCC4)CC3)CC2)c2ccc(Cl)cc2)CCN(c2ncnc3[nH]ccc23)CC1` [Compound I-244], the IC50 lay within 1000 to 5000 nM. To `NC1(C(=O)N[C@@H](CCN2CCC(OC3CCN(C(=O)[C@H](NC(=O)c4cccc(C5CN(C(=O)CNCc6ccc(F)cc6F)C5)c4)C4CCCCC4)CC3)CC2)c2ccc(Cl)cc2)CCN(c2ncnc3[nH]ccc23)CC1` [Compound I-245] belongs 500 to 1000 nM. To `NC1(C(=O)N[C@@H](CCN2CCN(C(=O)C34CCC(CN5CCN(C(=O)c6cccc(C7CCCN(C(=O)C8CC8)C7)c6)CC5)(CC3)OC4)CC2)c2ccc(Cl)cc2)CCN(c2ncnc3[nH]ccc23)CC1` (stereo partly drawn) [Compound I-246] belongs 1000 to 5000 nM. To `NC1(C(=O)N[C@@H](CCN2CCN(C(=O)CN3CCC(CN4CCN(C(=O)[C@H](NC(=O)c5cccc(C6CCCN(C(=O)C7CC7)C6)c5)C5CCCCC5)CC4)CC3)CC2)c2ccc(Cl)cc2)CCN(c2ncnc3[nH]ccc23)CC1` (stereo partly drawn) [Compound I-247] belongs 1000 to 5000 nM. Take `NC1(C(=O)N[C@@H](CCN2CCC(OC3CCN(C(=O)[C@H](NC(=O)c4cccc(C5CCCN(C(=O)C6CC6)C5)c4)C4CCCCC4)CC3)CC2)c2ccc(Cl)cc2)CCN(c2ncnc3[nH]ccc23)CC1` (stereo partly drawn) [Compound I-249]: the IC50 was 1000 to 5000 nM. To `NC1(C(=O)N[C@@H](CCN2CCC(OC3CCN(C(=O)[C@H](NC(=O)c4cccc(C5CCCN(C(=O)CNC6CC6)C5)c4)C4CCCCC4)CC3)CC2)c2ccc(Cl)cc2)CCN(c2ncnc3[nH]ccc23)CC1` (stereo partly drawn) [Compound I-250] belongs 1000 to 5000 nM. To `NC1(C(=O)N[C@@H](CCN2CCC(OC3CCN(C(=O)[C@H](NC(=O)c4cccc(C5CCCN(C(=O)CNCc6ccc(F)cc6F)C5)c4)C4CCCCC4)CC3)CC2)c2ccc(Cl)cc2)CCN(c2ncnc3[nH]ccc23)CC1` (stereo partly drawn) [Compound I-251] belongs 500 to 1000 nM; to `NC1(C(=O)N[C@@H](CCN2CCC(OC3CCN(C(=O)[C@H](NC(=O)c4cccc(C5CC5)c4F)C4CCCCC4)CC3)CC2)c2ccc(Cl)cc2)CCN(c2ncnc3[nH]ccc23)CC1` [Compound I-260], 1000 to 5000 nM. To `CCc1cccc(-c2cc(F)c(C(=O)N3CCC(CN4CCN(CC[C@H](NC(=O)C5(N)CCN(c6ncnc7[nH]ccc67)CC5)c5ccc(Cl)cc5)CC4)CC3)c(F)c2)c1` [Compound I-263] belongs 1000 to 5000 nM. `C[C@@H]1C[C@@H](O)c2ncnc(N3CCN(C(=O)[C@H](CNCCNC(=O)CN4CCC(OC5CCN(C(=O)[C@H](NC(=O)c6cccc(C7CCCN(C(=O)C8CC8)C7)c6F)C6CCCCC6)CC5)CC4)c4ccc(Cl)cc4)CC3)c21` (stereo partly drawn) [Compound I-264]: the IC50 is 1000 to 5000 nM. On to `C[C@@H]1C[C@@H](O)c2ncnc(N3CCN(C(=O)[C@H](CCN4CCC(CN5CCN(C(=O)[C@H](NC(=O)c6cccc(C7CCCN(C(=O)C8CC8)C7)c6)C6CCCCC6)CC5)CC4)c4ccc(Cl)cc4)CC3)c21` (stereo partly drawn) [Compound I-265], for which the IC50 is 1000 to 5000 nM. To `C[C@@H]1C[C@@H](O)c2ncnc(N3CCN(C(=O)[C@@H](CCN4CCC(CN5CCN(C(=O)[C@H](NC(=O)c6cccc(C7CCCN(C(=O)C8CC8)C7)c6)C6CCCCC6)CC5)CC4)c4ccc(Cl)cc4)CC3)c21` (stereo partly drawn) [Compound I-266] belongs 1000 to 5000 nM; to `NC1(C(=O)N[C@@H](CCN2CCN(C(=O)CN3CCC(OC4CCN(C(=O)[C@H](NC(=O)c5cccc(C6CC6)c5F)C5CCCCC5)CC4)CC3)CC2)c2ccc(Cl)cc2)CCN(c2ncnc3[nH]ccc23)CC1` [Compound I-270], 1000 to 5000 nM; to `C[C@@H]1C[C@@H](O)c2ncnc(N3CCN(C(=O)[C@H](CCN4CCC(CN5CCN(C(=O)[C@H](NC(=O)c6cccc(C7CCCN(C(=O)CNC8CC8)C7)c6)C6CCCCC6)CC5)CC4)c4ccc(Cl)cc4)CC3)c21` (stereo partly drawn) [Compound I-272], 1000 to 5000 nM. To `C[C@@H]1C[C@@H](O)c2ncnc(N3CCN(C(=O)[C@@H](CCN4CCC(CN5CCN(C(=O)[C@H](NC(=O)c6cccc(C7CCCN(C(=O)CNC8CC8)C7)c6)C6CCCCC6)CC5)CC4)c4ccc(Cl)cc4)CC3)c21` (stereo partly drawn) [Compound I-273] belongs 500 to 1000 nM. To `C[C@@H]1C[C@@H](O)c2ncnc(N3CCN(C(=O)[C@H](CCN4CCC(CN5CCN(C(=O)[C@H](NC(=O)c6cccc(C7CCCN(C(=O)CNCc8ccc(F)cc8F)C7)c6)C6CCCCC6)CC5)CC4)c4ccc(Cl)cc4)CC3)c21` (stereo partly drawn) [Compound I-274] belongs 500 to 1000 nM; to `C[C@@H]1C[C@@H](O)c2ncnc(N3CCN(C(=O)[C@@H](CCN4CCC(CN5CCN(C(=O)[C@H](NC(=O)c6cccc(C7CCCN(C(=O)CNCc8ccc(F)cc8F)C7)c6)C6CCCCC6)CC5)CC4)c4ccc(Cl)cc4)CC3)c21` (stereo partly drawn) [Compound I-275], 500 to 1000 nM; to `C[C@@H]1C[C@@H](O)c2ncnc(N3CCN(C(=O)[C@H](CN4CCC(OC5CCN(C(=O)[C@H](NC(=O)OC(C)(C)C)C6CCCCC6)CC5)CC4)c4ccc(Cl)cc4)CC3)c21` [Compound I-276], 1000 to 5000 nM. For the molecule `CCc1cccc(-c2cc(F)c(C(=O)N3CCC(OC4CCN(CC[C@H](NC(=O)C5(N)CCN(c6ncnc7[nH]ccc67)CC5)c5ccc(Cl)cc5)CC4)CC3)c(F)c2)c1` [Compound I-280], the IC50 was in the range of 1000 to 5000 nM. To `C=CC(=O)N1CCN(c2ccc(CCC(=O)N3CCC(CN4CCN(CC[C@H](NC(=O)C5(N)CCN(c6ncnc7[nH]ccc67)CC5)c5ccc(Cl)cc5)CC4)CC3)o2)C(=O)C1` [Compound I-284] belongs 1000 to 5000 nM.
